Assay results published in patent publication US20250171431A1, “HETEROCYCLIC INHIBITORS OF IGF-1R FOR TREATMENT OF DISEASE” (HORIZON THERAPEUTICS IRELAND DAC, priority 2023, published 2025).

Target: IGF-1R (Homo sapiens (Human), UniProt P08069)
Assay: Example B-1: IGF-1R Assay (PC3 cells, IGF1 stimulation, AlphaLISA)
Assay type: cell-based
Settings: 200 ng/mL IGF1 stimulation, read-out: Biological Activity against IGF-1R IC50
Outline: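 Readout is AlphaLISA signal from lysed PC3 cells, expressed as % inhibition versus vehicle and EC80 controls and banded by IC50. Before lysis, the cells were starved of serum for 2 h, exposed to 3× serially diluted compound for 2 h, and stimulated for 30 min with 200 ng/mL IGF1 (final).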

Chain of IGF-1R (P08069 31-1367): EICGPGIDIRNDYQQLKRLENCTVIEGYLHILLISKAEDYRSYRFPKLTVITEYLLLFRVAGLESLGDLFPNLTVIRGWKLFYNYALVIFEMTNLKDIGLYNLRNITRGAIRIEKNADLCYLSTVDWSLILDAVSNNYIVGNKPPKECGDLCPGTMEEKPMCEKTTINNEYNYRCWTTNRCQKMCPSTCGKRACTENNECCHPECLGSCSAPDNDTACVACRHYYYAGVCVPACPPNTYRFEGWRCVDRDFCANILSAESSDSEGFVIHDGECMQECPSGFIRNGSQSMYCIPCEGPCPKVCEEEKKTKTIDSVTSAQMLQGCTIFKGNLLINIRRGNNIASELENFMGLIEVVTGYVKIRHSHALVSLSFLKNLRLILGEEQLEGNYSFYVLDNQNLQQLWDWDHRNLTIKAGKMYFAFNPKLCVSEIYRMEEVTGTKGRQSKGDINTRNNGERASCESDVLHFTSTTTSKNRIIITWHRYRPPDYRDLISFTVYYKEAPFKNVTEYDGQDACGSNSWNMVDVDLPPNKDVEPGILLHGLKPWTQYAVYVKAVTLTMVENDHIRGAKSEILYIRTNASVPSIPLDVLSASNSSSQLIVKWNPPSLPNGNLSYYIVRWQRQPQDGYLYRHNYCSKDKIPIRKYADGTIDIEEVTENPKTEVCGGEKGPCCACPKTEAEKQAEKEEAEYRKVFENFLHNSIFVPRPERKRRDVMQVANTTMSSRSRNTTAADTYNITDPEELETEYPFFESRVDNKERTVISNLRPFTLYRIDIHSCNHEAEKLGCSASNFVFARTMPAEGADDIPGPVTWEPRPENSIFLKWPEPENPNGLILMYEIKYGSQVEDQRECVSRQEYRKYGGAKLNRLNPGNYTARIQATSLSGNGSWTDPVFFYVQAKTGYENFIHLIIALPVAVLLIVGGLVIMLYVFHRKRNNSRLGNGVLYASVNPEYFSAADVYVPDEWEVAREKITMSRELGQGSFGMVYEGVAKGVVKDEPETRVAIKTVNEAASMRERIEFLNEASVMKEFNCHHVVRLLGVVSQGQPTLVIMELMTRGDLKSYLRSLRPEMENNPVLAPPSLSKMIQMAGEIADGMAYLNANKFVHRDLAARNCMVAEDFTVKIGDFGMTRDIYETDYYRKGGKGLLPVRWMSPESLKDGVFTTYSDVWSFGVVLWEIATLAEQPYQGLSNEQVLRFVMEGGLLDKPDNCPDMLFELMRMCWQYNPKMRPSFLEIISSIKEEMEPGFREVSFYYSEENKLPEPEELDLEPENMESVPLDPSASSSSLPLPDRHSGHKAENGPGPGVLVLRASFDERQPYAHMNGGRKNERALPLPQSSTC

Structure (SMILES) | IC50
COc1cc(Nc2nccc(Nc3cc(C)c4ccccc4c3)n2)ccc1OCCCN1CCCCC1 [Compound 454, 2-[3-methoxy-4-(3-piperidinopropoxy)phenylamino]-4-(4-methyl-2-naphthylamino) pyrimidine] | ≤ 0.5 µM
COc1cc(Nc2nccc(Nc3cnc4c(c3)CC[C@@H](C)C4)n2)ccc1OCCCN1CCCCC1 [Compound 71, 4-[(R)-7-methyl-5,6,7,8-tetrahydro-3-quinolylamino]-2-[3-methoxy-4-(3-piperidinopropoxy)phenylamino] pyrimidine] | ≤ 0.5 µM
COc1cc(Nc2nccc(Nc3cnc4cc(F)c(F)cc4c3)n2)cnc1N1CCNCC1 [Compound 478, 4-(6,7-difluoro-3-quinolylamino)-2-[5-methoxy-6-(1-piperazinyl)-3-pyridylamino]pyrimidine] | ≤ 0.5 µM
COc1cc(Nc2nccc(Nc3cc4ccccc4nc3OC)n2)ccc1O[C@H]1C[C@H](N(C)C)C1 [Compound 340, 4-(2-methoxy-3-quinolylamino)-2-{3-methoxy-4-[(1r,3r)-3-(dimethylamino)cyclobutoxy]phenylamino}pyrimidine] | ≤ 0.5 µM
COc1cc(Nc2nccc(Nc3cnc4cc(F)c(F)cc4c3)n2)cnc1O[C@@H]1C[C@H](N(C)C)C1(C)C [Compound 254, 2-{6-[(1R,3S)-3-(dimethylamino)-2,2-dimethylcyclobutoxy]-5-methoxy-3-pyridylamino}-4-(6,7-difluoro-3-quinolylamino)pyrimidine] | ≤ 0.5 µM
COc1cc(Nc2nccc(Nc3ccc4c(c3)CCC(=O)N4)n2)ccc1OCCCN1CCCCC1 [Compound 448, 6-{2-[3-methoxy-4-(3-piperidinopropoxy)phenylamino]-4-pyrimidinylamino}-3,4-dihydro-2(1H)-quinolinone] | ≤ 0.5 µM
COc1cc(Nc2nccc(Nc3cc4cccc(F)c4[nH]c3=O)n2)cnc1N1CCN(C2COC2)CC1 [Compound 237, 8-fluoro-3-(2-{5-methoxy-6-[4-(3-oxetanyl)-1-piperazinyl]-3-pyridylamino}-4-pyrimidinylamino)-1,2-dihydro-2-quinolinone] | ≤ 0.5 µM
COc1cc(Nc2ncc(F)c(Nc3cnc4ccc(Cl)cc4c3)n2)ccc1O[C@H]1C[C@@H](N(C)C)C1 [Compound 210, N4-(6-chloroquinolin-3-yl)-N2-(4-((1s,3s)-3-(dimethylamino)cyclobutoxy)-3-methoxyphenyl)-5-fluoropyrimidine-2,4-diamine] | ≤ 0.5 µM
CN(C)CC1COc2cc(Nc3nccc(Nc4cc5cc(Cl)ccc5[nH]c4=O)n3)ccc2O1 (centres unmarked) [Compound 245, 6-chloro-3-(2-{2-[(dimethylamino)methyl]-2,3-dihydro-1,4-benzodioxin-6-ylamino}-4-pyrimidinylamino)-1,2-dihydro-2-quinolinone] | ≤ 0.5 µM
CN(C)[C@H]1C[C@@H](Oc2ncc(Nc3nccc(Nc4cnc5c(c4)OCCO5)n3)cc2C#N)C1 [Compound 46, 5-[4-(2,3-dihydro-1,4-dioxa-5-aza-7-naphthylamino)-2-pyrimidinylamino]-2-[(1s,3s)-3-(dimethylamino)cyclobutoxy] nicotinonitrile] | ≤ 0.5 µM
COc1cc(Nc2nccc(Nc3cc4cccc(F)c4[nH]c3=O)n2)cnc1N1CCS(=N)(=O)CC1 [Compound 240, 4-{5-[4-(8-fluoro-2-oxo-1,2-dihydro-3-quinolylamino)-2-pyrimidinylamino]-3-methoxy-2-pyridyl}-1-imino-1λ^6,4-thiazinan-1-one] | > 10 µM
COc1ccc2cc(Nc3ccnc(Nc4ccc(O[C@H]5C[C@H](N6CCOCC6)C5)cc4)n3)cnc2c1 [Compound 356, 4-(7-methoxy-3-quinolylamino)-2-{p-[(1r,3r)-3-morpholinocyclobutoxy]phenylamino}pyrimidine] | 0.5 to 2 µM
COc1cc(Nc2nccc(Nc3cnc4c(c3)CCCO4)n2)ccc1OCCCN1CCCCC1 [Compound 375, 4-(3,4-dihydro-2H-1-oxa-8-azanaphth-6-ylamino)-2-[3-methoxy-4-(3-piperidinopropoxy)phenylamino]pyrimidine] | ≤ 0.5 µM
CN(C)[C@H]1C[C@H](Oc2ccc(Nc3nccc(Nc4cnc5ccccc5c4)n3)cc2)C1 [Compound 27, 4-(3-quinolylamino)-2-{p-[(1r,3r)-3-(dimethylamino)cyclobutoxy]phenylamino}pyrimidine] | ≤ 0.5 µM
COc1ccc2cc(Nc3ccnc(Nc4ccc(O[C@@H]5C[C@H]6COC[C@@H](C5)N6C)cc4)n3)cnc2c1 [Compound 345, 2-(p-{(1R,5S,7s)-9-methyl-3-oxa-9-azabicyclo[3.3.1]non-7-yloxy}phenylamino)-4-(7-methoxy-3-quinolylamino)pyrimidine] | 0.5 to 2 µM
c1ccc2ncc(Nc3ccnc(Nc4ccc(O[C@H]5C[C@H](N6CCOCC6)C5)cc4)n3)cc2c1 [Compound 26, 4-(3-quinolylamino)-2-{p-[(1r,3r)-3-morpholinocyclobutoxy]phenylamino}pyrimidine] | ≤ 0.5 µM

Structure (SMILES) | IC50
COc1cc(Nc2nccc(Nc3cnc4c(c3)OCC(C)O4)n2)ccc1OCCCN1CCCCC1 (centres unmarked) [Compound 101, 2-[3-methoxy-4-(3-piperidinopropoxy)phenylamino]-4-(3-methyl-2,3-dihydro-1,4-dioxa-5-aza-7-naphthylamino)pyrimidine] | ≤ 0.5 µM
COc1cc(Nc2nccc(Nc3cnc4cc(C)ccc4c3)n2)ccc1OCCCN1CCCCC1 [Compound 98, 2-[3-methoxy-4-(3-piperidinopropoxy)phenylamino]-4-(7-methyl-3-quinolylamino)pyrimidine] | ≤ 0.5 µM
COc1cc(Nc2nccc(Nc3cc4cccc(F)c4[nH]c3=O)n2)ccc1O[C@H]1C[C@@H](N(C)C)C1 [Compound 120, 8-fluoro-3-(2-{3-methoxy-4-[(1s,3s)-3-(dimethylamino)cyclobutoxy]phenyl-amino}-4-pyrimidinylamino)-1,2-dihydro-2-quinolinone] | ≤ 0.5 µM
COc1cc(Nc2nccc(Nc3cnc4ccc(OC(F)(F)F)cc4c3)n2)ccc1OCCCN1CCCCC1 [Compound 6, 2-[3-methoxy-4-(3-piperidinopropoxy)phenylamino]-4-(6-trifluoromethoxy-3-quinolylamino)pyrimidine] | ≤ 0.5 µM
COc1cc(Nc2nccc(Nc3cc4cccc(F)c4[nH]c3=O)n2)ccc1N1CCN(C)C(C)(C)C1 [Compound 175, 8-fluoro-3-((2-((3-methoxy-4-(3,3,4-trimethylpiperazin-1-yl)phenyl)amino)pyrimidin-4-yl)amino)quinolin-2(1H)-one] | ≤ 0.5 µM
O=S1(=O)CCc2ncc(Nc3ccnc(Nc4ccc(OCCCN5CCOCC5)cc4)n3)cc2C1 [Compound 390, 3-{2-[p-(3-morpholinopropoxy)phenylamino]-4-pyrimidinylamino}-5,6,7,8-tetrahydro-6H,6H-6λ^6-thia-1-azanaphthalene-6,6-dione] | 0.5 to 2 µM
COc1cc(Nc2nccc(Nc3cnc4cc(F)c(F)cc4c3)n2)cnc1N1CCNC(C(C)(C)O)C1 (centres unmarked) [Compound 52, 2-(4-{5-[4-(6,7-difluoro-3-quinolylamino)-2-pyrimidinylamino]-3-methoxy-2-pyridyl}-2-piperazinyl)-2-propanol] | ≤ 0.5 µM
O=C1CN([C@H]2CC[C@@H](Oc3ccc(Nc4nccc(Nc5cnc6ccccc6c5)n4)cc3)CC2)CCN1 [Compound 41] | ≤ 0.5 µM
COc1cc(Nc2nccc(Nc3cnc4c(c3)O[C@H]3CCCC[C@@H]3O4)n2)ccc1O[C@H]1C[C@@H](N(C)C)C1 [Compound 191, 4-[(8aS,10aS)-5,6,7,8,8a,10a-hexahydro-9,10-dioxa-1-aza-3-anthrylamino]-2-{3-methoxy-4-[(1s,3R)-3-(dimethylamino)cyclobutoxy]phenylamino}pyrimidine] | ≤ 0.5 µM
COc1cc(Nc2nccc(Nc3cnc4c(cnn4C)c3)n2)ccc1O[C@H]1C[C@@H](N(C)C)C1 [Compound 280, 2-{3-methoxy-4-[(1s,3s)-3-(dimethylamino)cyclobutoxy]phenylamino}-4-(1-methyl-1H-1,2,7-triazainden-5-ylamino)pyrimidine] | ≤ 0.5 µM
COc1cc(Nc2nccc(Nc3cnc4c(c3)CCC(C)(C)C4)n2)ccc1O[C@H]1C[C@H](N(C)C)C1 [Compound 338, 4-(7,7-dimethyl-5,6,7,8-tetrahydro-3-quinolylamino)-2-{3-methoxy-4-[(1r,3r)-3-(dimethylamino)cyclobutoxy]phenylamino}pyrimidine] | ≤ 0.5 µM
COc1cc(Nc2nccc(Nc3cnc4c(c3)CCCCC4)n2)ccc1O[C@H]1C[C@@H](N(C)C)C1 [Compound 202, 4-{8-azabicyclo[5.4.0]undeca-1(7),8,10-trien-10-ylamino}-2-{3-methoxy-4-[(1s,3s)-3-(dimethylamino)cyclobutoxy]phenylamino}pyrimidine] | ≤ 0.5 µM
COc1cc(Nc2nccc(Nc3cc4cc(F)ccc4[nH]c3=O)n2)ccc1O[C@H]1C[C@@H](N(C)C)C1 [Compound 121, 6-fluoro-3-(2-{3-methoxy-4-[(1s,3s)-3-(dimethylamino)cyclobutoxy]phenyl-amino}-4-pyrimidinylamino)-1,2-dihydro-2-quinolinone] | ≤ 0.5 µM
COc1cc(Nc2nccc(Nc3cnc4c(c3)CSCC4)n2)ccc1OCCCN1CCCCC1 [Compound 377, 4-(7,8-dihydro-5H-6-thia-1-azanaphth-3-ylamino)-2-[3-methoxy-4-(3-piperidinopropoxy)phenylamino]pyrimidine] | ≤ 0.5 µM
COc1cc(Nc2nccc(Nc3cnc4c(c3)OCC(CN(C)C)O4)n2)ccc1O[C@H]1C[C@@H](N(C)C)C1 (some centres unmarked) [Compound 179, 4-{3-[(dimethylamino)methyl]-2,3-dihydro-1,4-dioxa-5-aza-7-naphthylamino}-2-{3-methoxy-4-[(1s,3s)-3-(dimethylamino)cyclobutoxy]phenylamino}pyrimidine] | ≤ 0.5 µM
O=S1(=O)CCN(CCCOc2ccc(Nc3nccc(Nc4cnc5cc(Cl)ccc5c4)n3)cc2)CC1 [Compound 399, 4-(3-{p-[4-(7-chloro-3-quinolylamino)-2-pyrimidinylamino]phenoxy}propyl)-1λ^6,4-thiazinane-1,1-dione] | 2 to 10 µM
